Assays:
Assay in all cases: relative viability (nuclei count vs DMSO), 5 days (fraction); higher = more cells survive
[1] = compound: CN[C@@H]1C[C@H]2O[C@@](C)([C@@H]1OC)n1c3ccccc3c3c4c(c5c6ccccc6n2c5c31)C(=O)NC4 [Staurosporine] + O=C(CCCCCCC(=O)Nc1ccccc1)NO [Vorinostat] (partner 1 µM)
In short: (§1)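 Cells from lung cancer lines were seeded into 1536-well plates and, one day later, dosed by pin tool. Treatments were either a single drug or a fixed dose of an anchor drug with five library-drug doses (not always all listed) in √10 steps. After 5 days, nuclei were stained in a one-step fixation (final 0.05% Triton X-100, 1% formaldehyde, 1 ug/ml Hoechst) and counted on 4× images, and relative viability is the treated-to-vehicle nuclei ratio, as the median of duplicate plates.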

[2] = compound: O=c1[nH]cc(F)c(=O)[nH]1 [5-Fluorouracil] + Cc1cc(Nc2cc(N3CCN(C)CC3)nc(Sc3ccc(NC(=O)C4CC4)cc3)n2)n[nH]1 [Tozasertib] (partner 0.1 µM)
In short: as §1

[3] = compound: O=c1[nH]cc(F)c(=O)[nH]1 [5-Fluorouracil] + Cc1nc(Nc2ncc(C(=O)Nc3c(C)cccc3Cl)s2)cc(N2CCN(CCO)CC2)n1 [Dasatinib] (partner 0.075 µM)
In short: as §1

[4] = compound: CN[C@@H]1C[C@H]2O[C@@](C)([C@@H]1OC)n1c3ccccc3c3c4c(c5c6ccccc6n2c5c31)C(=O)NC4 [Staurosporine] + Cc1nc(NC(=O)N2CCC[C@H]2C(N)=O)sc1-c1ccnc(C(C)(C)C(F)(F)F)c1 [Alpelisib] (partner 2 µM)
In short: as §1

Cell Line	relative viability ([1]; first compound 0.005 µM)	relative viability ([1]; first compound 0.01581 µM)	relative viability ([1]; first compound 0.05 µM)	relative viability ([1]; first compound 0.1581 µM)	relative viability ([1]; first compound 0.5 µM)	relative viability ([2]; first compound 0.02 µM)	relative viability ([2]; first compound 0.2 µM)	relative viability ([2]; first compound 0.6325 µM)	relative viability ([2]; first compound 2 µM)	relative viability ([3]; first compound 0.02 µM)	relative viability ([3]; first compound 0.2 µM)	relative viability ([3]; first compound 0.6325 µM)	relative viability ([3]; first compound 2 µM)	relative viability ([4]; first compound 0.005 µM)	relative viability ([4]; first compound 0.05 µM)	relative viability ([4]; first compound 0.1581 µM)	relative viability ([4]; first compound 0.5 µM)	relative viability ([4]; first compound 0.01581 µM)
NCI-H522	0.856	0.452	0.75	0.397	0.484	0.515	0.556	0.586	0.48	0.844	0.852	0.979	0.868	–	–	–	–	–
NCI-H1944	0.469	0.267	0.282	0.12	0.118	0.253	0.256	0.218	0.153	0.21	0.225	0.138	0.127	0.953	0.483	0.384	0.341	–
PC-14	0.267	0.116	0.0757	0.047	0.0287	0.54	0.618	0.599	0.453	0.247	0.268	0.274	0.188	0.693	0.172	0.0738	0.0496	0.452
NCI-H1650	0.379	0.414	0.242	0.195	0.0786	0.408	0.401	0.317	0.211	0.297	0.291	0.202	0.218	–	–	–	–	–
HCC-827	0.866	0.772	0.384	0.174	0.183	–	0.433	0.391	0.29	0.254	0.335	0.305	0.337	1.1	0.748	–	0.431	0.852
HCC-366	0.331	–	0.0353	0.0261	0.0187	0.193	0.0738	0.0902	0.0478	0.559	0.61	0.249	0.0872	0.363	0.0965	0.0438	0.0105	–
HARA	0.511	0.114	0.307	0.302	0.195	0.165	0.122	0.129	0.103	0.274	0.388	0.232	0.192	0.532	0.142	0.0954	0.0999	0.173
NCI-H441	0.458	0.327	0.232	0.144	0.114	0.701	0.468	0.372	0.343	0.748	0.63	0.49	0.278	0.615	0.316	0.218	0.229	0.328
LXF-289	0.73	0.249	0.29	0.0781	0.0815	0.189	0.164	0.134	0.138	0.192	0.202	0.152	0.154	0.902	0.197	0.0563	0.0673	–
SK-LU-1	0.265	0.206	0.179	0.164	0.148	0.412	0.408	0.346	0.338	0.189	0.182	0.195	0.166	0.264	0.18	0.158	0.122	0.188
CAL-12T	0.415	0.231	0.165	0.129	0.112	0.337	0.385	0.316	0.221	0.403	0.371	0.282	0.261	0.374	0.125	0.0823	0.0729	0.146
COR-L 105	0.69	0.289	0.228	0.333	0.224	0.303	0.328	0.323	0.26	0.292	0.362	0.29	0.244	0.59	0.236	0.235	0.197	0.388
NCI-H2405	0.199	0.147	0.131	0.0894	0.0973	0.686	0.81	0.733	0.703	0.217	0.231	0.197	0.224	0.185	0.101	0.075	0.0622	0.131
NCI-H2228	0.449	0.188	0.126	0.0779	0.0804	0.293	0.25	0.24	0.187	0.562	0.457	0.349	0.268	0.658	0.155	0.148	0.0961	0.204
PC-3 [JPC-3]	0.351	0.306	0.396	0.297	0.376	0.828	0.881	0.827	0.554	0.979	1.08	0.946	0.709	1.05	0.638	0.508	0.39	–
SW 1573	0.811	0.391	0.152	0.0813	0.0557	0.205	0.175	0.183	0.153	0.58	0.402	0.472	0.259	0.45	0.144	0.14	0.148	0.299
A549	–	–	–	–	–	–	–	–	–	–	–	–	–	0.206	0.0899	0.0462	0.0282	0.284
NCI-H1648	0.517	0.167	0.269	0.246	0.271	0.442	0.457	0.372	0.207	–	–	–	–	–	–	–	–	–
NCI-H1623	–	–	–	–	–	0.38	0.314	0.264	0.248	0.412	0.64	0.256	0.232	–	–	–	–	–
NCI-H1666	0.938	0.824	0.801	0.593	0.446	0.672	0.446	0.4	0.399	0.848	0.555	0.4	0.391	0.582	0.375	0.177	0.175	0.371

— the supplement of paper PMC10307832
